Results from PubChem BioAssay AID298 (DTP/NCI, 2004).
“And” between values parts separate entries of the source, which are not always exact repeats. Equal entries are not always repeated. Records with an inconclusive call do not appear.

System: MX-1 breast xenograft, intrarenal, nude mice, tumor weight
Assay: NCI In Vivo Anticancer Drug Screen. Data for tumor model Human Mammary Carcinoma MX-1 Xenograft (intrarenal inoculation) in NU/NU BALB/C (nude) mice
Settings: endpoint: mean tumor weight change, higher = larger tumour
Outline: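 Efficacy in vivo: tumor measurement or survival of treated animals divided by that of vehicle-dosed controls.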

Compound: CC1=C(/C=C/C(C)=C/C=C/C(C)=C/C=O)C(C)(C)CCC1
- T/C (dose: 150.0 mg/kg/injection, schedule: Q04DX003 (sc), vehicle: saline with Tween-80): 84 % of control
- T/C (dose: 300.0 mg/kg/injection, schedule: Q04DX003 (sc), vehicle: saline with Tween-80): 39 % of control
- T/C (dose: 600.0 mg/kg/injection, schedule: Q04DX003 (sc), vehicle: saline with Tween-80): 51 % of control
- T/C (dose: 1200.0 mg/kg/injection, schedule: Q04DX003 (sc), vehicle: saline with Tween-80): 34 % of control

Compound: COc1c(C=O)c2c(c(OC)c1OC)-c1ccc(OC)c(=O)cc1[C@@H](NC(C)=O)CC2
- T/C (dose: 9.37 mg/kg/injection, schedule: Q04DX003 (sc), vehicle: Klucel (hydroxypropylcellulose) (HPC)): 62 % of control
- T/C (dose: 18.75 mg/kg/injection, schedule: Q04DX003 (sc), vehicle: Klucel (hydroxypropylcellulose) (HPC)): 40 % of control
- T/C (dose: 37.5 mg/kg/injection, schedule: Q04DX003 (sc), vehicle: Klucel (hydroxypropylcellulose) (HPC)): 13 % of control

Compound: CC(=O)c1c(O)c(C)c(O)c2c1OC1=CC(=O)C(C(C)=O)C(=O)C12C (centres undefined)
- T/C (dose: 200.0 mg/kg/injection, schedule: Q01DX010 (sc), vehicle: sodium bicarbonate): 96 % of control
- T/C (dose: 400.0 mg/kg/injection, schedule: Q01DX010 (sc), vehicle: sodium bicarbonate): 72 % of control

Compound: Cc1nc(N)nc(N)c1N1CCN(c2ccc(C(=O)NC(CCC(=O)O)C(=O)O)cc2)CC1 (centres undefined)
- T/C (dose: 12.5 mg/kg/injection, schedule: Q04DX003 (ip), vehicle: other): 85 % of control
- T/C (dose: 25.0 mg/kg/injection, schedule: Q04DX003 (ip), vehicle: other): 112 % of control
- T/C (dose: 50.0 mg/kg/injection, schedule: Q04DX003 (ip), vehicle: other): 122 % of control
- T/C (dose: 100.0 mg/kg/injection, schedule: Q04DX003 (ip), vehicle: other): 87 % of control

Compound: O=C1C2=C(Nc3cc([N+](=O)[O-])ccc3N2)OC1c1ccccn1 (centres undefined)
- T/C (dose: 50.0 mg/kg/injection, schedule: Q04DX003 (ip), vehicle: Klucel (hydroxypropylcellulose) (HPC)): 87 % of control
- T/C (dose: 100.0 mg/kg/injection, schedule: Q04DX003 (ip), vehicle: Klucel (hydroxypropylcellulose) (HPC)): 66 % of control
- T/C (dose: 200.0 mg/kg/injection, schedule: Q04DX003 (ip), vehicle: Klucel (hydroxypropylcellulose) (HPC)): 118 % of control
- T/C (dose: 400.0 mg/kg/injection, schedule: Q04DX003 (ip), vehicle: Klucel (hydroxypropylcellulose) (HPC)): 63 % of control

Compound: CC1OC2CC(O)C1(O)C1=C2C(O)=C(C(N)=O)C(=N)C1=O (centres undefined)
- T/C (dose: 0.62 mg/kg/injection, schedule: Q04DX003 (ip), vehicle: saline): 99 % of control
- T/C (dose: 1.25 mg/kg/injection, schedule: Q04DX003 (ip), vehicle: saline): 62 % of control
- T/C (dose: 2.5 mg/kg/injection, schedule: Q04DX003 (ip), vehicle: saline): 101 % of control

Compound: CCN(CC)CCn1[nH]c2c3ccc(=O)cc3sc3c(NCCN)ccc1c32
- T/C (dose: 3.12 mg/kg/injection, schedule: Q04DX003 (ip), vehicle: water): 26 % of control and 40 % of control
- T/C (dose: 6.25 mg/kg/injection, schedule: Q04DX003 (ip), vehicle: water): 35 % of control and 38 % of control and 42 % of control
- T/C (dose: 25.0 mg/kg/injection, schedule: Q04DX003 (ip), vehicle: water): 50 % of control

Compound: COc1ccc(S(=O)(=O)N/N=C/C(=O)O)cc1
- T/C (dose: 25.0 mg/kg/injection, schedule: Q01DX010 (sc), vehicle: saline with Tween-80): 79 % of control
- T/C (dose: 50.0 mg/kg/injection, schedule: Q01DX010 (sc), vehicle: saline with Tween-80): 59 % of control
- T/C (dose: 100.0 mg/kg/injection, schedule: Q01DX010 (sc), vehicle: saline with Tween-80): 8 % of control

Compound: [N-]=[N+]=[N-]
- T/C (dose: 1.5 mg/kg/injection, schedule: Q04DX003 (ip), vehicle: water): 66 % of control
- T/C (dose: 6.0 mg/kg/injection, schedule: Q04DX003 (ip), vehicle: water): 66 % of control
- T/C (dose: 12.0 mg/kg/injection, schedule: Q04DX003 (ip), vehicle: water): 64 % of control

Compound: Cn1c(=S)sc2nc3ccccc3n2c1=S
- T/C (dose: 30.0 mg/kg/injection, schedule: Q04DX003 (ip), vehicle: saline with Tween-80): 165 % of control
- T/C (dose: 120.0 mg/kg/injection, schedule: Q04DX003 (ip), vehicle: saline with Tween-80): 42 % of control

Compound: O=C1C=CC(=CC=C2C=CN(CCCCCCCCCCCO)C=C2)C=C1
- T/C (dose: 12.5 mg/kg/injection, schedule: Q04DX003 (ip), vehicle: saline with Tween-80): 89 % of control
- T/C (dose: 25.0 mg/kg/injection, schedule: Q04DX003 (ip), vehicle: saline with Tween-80): 84 % of control
- T/C (dose: 50.0 mg/kg/injection, schedule: Q04DX003 (ip), vehicle: saline with Tween-80): 69 % of control
